With `C[C@@](N)(CO)CCc1ccc(OCc2ccccc2)cc1` [G024, (2S)-2-amino-4-(4′-benzyloxyphenyl)-2-methyl-1-butanol] the melting point was 196.7 to 197.6 °C.
